Results from patent US12208146B2, “Reconstituted HDL nanoparticles for delivery of radioactive agents and uses thereof” (UNIVERSITY OF NORTH TEXAS HEALTH SCIENCE CENTER, priority 2018, dated 2025).

Test system: PC3 cells
Experiment: Cell uptake experiments with and without SR-B1 blocking by unlabeled rHDL
Format: cell-based
Conditions: for total uptake: PC-3 cells
Protocol: PC3 cells were harvested and diluted in fresh medium (1×10^5 cells/well, 0.5 mL) and then seeded in 24-well tissue culture plates. After 24 h, the medium was removed, and the cells were incubated with 100 μL/well of phosphate buffered saline (PBS) and the following treatments per well: 2 kBq of ^99mTcO4−, and 30 μL of 1 μg/μL of ^99mTc-rHDL, ^99mTc-Liposome, and ^99mTc-HYNIC-DA for 45 min at 37° C. Then, cells were rinsed two times with 0.5 mL of ice-cold PBS. These two washes were combined and represent the ^99mTcO4^−, ^99mTc-rHDL, ^99mTc-Liposome, and ^99mTc-HYNIC-DA not bounded to cells. Cells were washed with 1 mL of PBS and later were incubated twice with 0.5 mL of Glycine-HCl (50 mM, pH 2.8). The Glycine-HCl washes were combined, these washed recovered the ^99mTcO4^−, ^99mTc-rHDL, ^99mTc-Liposome, and ^99mTc-HYNIC-DA adhered or bounded to cell membrane. Cells were washed with 1 mL of PBS, and finally were washed twice with 0.5 mL of 1.0 M NaOH (lysed cells) to recover the ^99mTcO4^−, ^99mTc-rHDL, ^99mTc-Liposome, and ^99mTc-HYNIC-DA internalized in the cytoplasm (washes were combined). Radioactivity was measured in the initial PBS, Glycine-HCl and NaOH combined washes using a NaI(Tl) detector (NML Inc. USA). The initial activity of each treatment was taken to represent 100% of activity. In parallel, the nonspecific binding was determined using 30 μL of 60 μg/μL of unlabeled rHDL, which blocked SR-B1 receptors on PC3 cells.

[O]=[99Tc](=[O])(=[O])[O-] [^99m TcO4^−]
total uptake (with SR-B1 blocking): 2.9% | total uptake (without SR-B1 blocking): 2.8% | incorporation into cells (control groups, data not shown): only marginal incorporation into cells
